Key:
terminal ileum [1] = assay: PAT: ileal expression by qPCR in 6-week mice; format: in vivo, C57BL/6 mice; details: 6-week male mice, 3 pulses, vs control, p<0.05
Experimental: Total RNA was extracted from mouse tissues using the RNeasy Mini Kit (Qiagen), according to the manufacturer's instructions. Total RNA was reverse transcribed to cDNA using the Verso™ cDNA Synthesis Kit (Thermo Scientific). To generate standards for expression analysis of each target gene, the cDNA region of interest was PCR-amplified and the PCR product was cloned into pGEM-T easy (Promega). qPCR was performed with LightCycler 480 SYBR Green I Master mix (Roche) and run in a LightCycler 480 system (Roche). Target mRNA was normalized to GAPDH mRNA as an internal control in each sample.
C57BL/6 mice were fed a standard diet after weaning, and exposed to 3 pulses of therapeutic dose antibiotics (Amoxicillin or Tylosin), or no antibiotics, via their drinking water, all before 6 weeks of age. Mice were sacrificed at 6 weeks of age.
The distal ileum (1 cm) without Peyer's Patches was collected from each mouse for RNA extraction and kept in RNAlater (Ambion) overnight at 4° C. Samples were stored at −80° C. until RNA extraction was performed.
Panel A: Mice were exposed to 3 pulses of antibiotics (Amoxicillin or Tylosin), or no antibiotics, via breast milk or drinking water at the indicated time points. Panel B: Male mice, including 5 Control, 4 Amoxicillin, and 6 Tylosin, were fed a normal diet. They were sacrificed at 6 weeks of age and the terminal[1 cm] ileum without Peyer's Patches [TI-] was collected.
Ileal expression of T-bet and IFN-γ [Th1], GATA3 and IL-4 [Th2], Foxp3, and TGFβ1 [Treg], and RORγt, IL-17A, and IL-17F [Th17] (Control n=5, Amoxicillin n=4, Tylosin n=6) was quantitated with qPCR and normalized by GAPDH expression. Expression of T-bet and IFNγ [Th1] (p<0.05) and IL-17A and IL-17F [Th17] […] Foxp3 and RORγt were lower in Tylosin than control. This example extends the earlier observation that continuous antibiotics affect ileal immune cell populations and effectors by showing that pulses are sufficient to produce similar effects.

terminal ileum [2] = assay: PAT: ileal gene expression profiling by whole genome microarray, 6-week mice; format: in vivo, C57BL/6 mice; details: 6-week PAT vs Control, T-test p<0.05 and fold change ≧1.2 or ≦0.8
Experimental: Ileal gene expression profiling of STAT, PAT, and control animal groups, was performed using the Affymetrix Genechip system (Affymetrix). Total RNA quality and quantity were determined using the Agilent 2100 Bioanalyser and Nanodrop ND-1000. Total RNA (100 ng) was used to prepare cDNA following the Affymetrix […] Express Kit labelling protocol (Affymetrix). Standardized array processing procedures recommended by Affymetrix were performed, including hybridization, fluidics processing and scanning of the Affymetrix MG-430 2.0 arrays. GeneSpring GX11 software (Agilent Technologies) was used to normalize the raw data (Affymetrix CEL files) by Robust Multichip Average algorithm (RMA).
1127 and 3065 reproducibly regulated genes were identified from ˜45,000 genes of the mouse genome by T-test (p<0.05) and fold change (≧1.2 or ≦0.8) in 6-week PAT (Panel A; Control vs Amoxicillin and Panel B; Control vs Tylosin), respectively (FIG. 22). DAVID analysis was performed using the regulated genes, and Gene Set Enrichment analysis (GSEA) was performed using whole gene data.
(C, n=3), amoxicillin (A, n=3), and tylosin treated mice (T, n=3).

[3] = asthma; cited from earlier work

Row | SMILES | ileal expression of IFNγ [Th1] (terminal ileum [1]) | ileal expression of IL-17A [Th17] (terminal ileum [1]) | ileal expression of IL-17F [Th17] (terminal ileum [1]) | ileal expression of T-bet [Th1] (terminal ileum [1]) | reproducibly regulated genes out of ~45,000 genes of the mouse genome (terminal ileum [2]) | airway hyperresponsives (AHR) [3] | neutrophilic inflammation [3]
1 | CC1(C)S[C@@H]2[C@H](NC(=O)[C@H](N)c3ccc(O)cc3)C(=O)N2[C@H]1C(=O)O [Amoxicillin] | significantly lower | significantly lower | significantly lower | significantly lower | 1127 | – | –
2 | CC[C@H]1OC(=O)[C@H](C)[C@@H](O[C@H]2C[C@@](C)(OC)[C@@H](O)[C@H](C)O2)[C@H](C)[C@@H](O[C@@H]2O[C@H](C)C[C@H](N(C)C)[C@H]2O)[C@](C)(OC)C[C@@H](C)C(=O)[C@H](C)[C@@H](O)[C@]1(C)O [clarithromycin] | – | – | – | – | – | reduced | reduced

Source: US20160120915A1, “METHODS FOR MANIPULATING IMMUNE RESPONSES BY ALTERING MICROBIOTA” (NEW YORK UNIVERSITY, priority 2013, published 2016)
